From patent publication US12263479B2, “Array microfluidic chip and method of antibiotic susceptibility testing” (MEDFLUID CO., LTD., priority 2021, dated 2025)
≈ marks a conversion by molar mass, not a printed value. Where two headings read alike, the source gives them in different places.

Experiments:
E. coli ATCC25922 [1] = assay: antibiotic susceptibility testing on the array microfluidic chip (redox indicator discoloration); assay type: cell-based, Escherichia coli; settings: for MIC: Escherichia coli, read-out: minimum inhibitory concentration (MIC)
Source text: (§1) In the present experiment, the array microfluidic chip of the present disclosure is used to perform the antibiotic susceptibility testing on Escherichia coli ATCC25922 (“E. coli ATCC25922” hereafter) and Staphylococcus aureus ATCC29213 (“S. aureus ATCC29213” hereafter) to three antibiotics, namely Amikacin, Gentamicin and Vancomycin.
(§2) In the experiment, the dried powders of Amikacin, Gentamicin or Vancomycin are respectively placed in different reaction wells of the array microfluidic chip with different contents, and then the array microfluidic chip is sealed and keeps refrigerated. Next, redox indicators with proper amounts are respectively added to the bacteria-containing mediums including E. coli ATCC25922 or S. aureus ATCC29213, and the bacteria-containing mediums are transported to different reaction wells of different array microfluidic chips and then mixed with the antibiotic powders with different contents thereof so as to form the reaction solutions including different concentrations of antibiotics.
Next, the array microfluidic chips are placed in the incubator and cultured at 37° C., and the antibiotic susceptibilities of E. coli ATCC25922 and S. aureus ATCC29213 to Amikacin, Gentamicin and Vancomycin are further assessed based on the discoloration of the reaction solutions. In detail, if E. coli ATCC25922 and S. aureus ATCC29213 can grow under the existence of a specific antibiotic with a particular concentration, the color of the reaction solution including the redox indicator will gradually change from blue to purple, and eventually to pink, and the discoloration can be observed on the array microfluidic chip directly. Therefore, the assessing time of the method of antibiotic susceptibility testing of the present disclosure can be greatly shortened.
Please refer to FIG. 10A, FIG. 10B, FIG. 10C and Table 2 simultaneously. […] Furthermore, in FIG. 10C, the far left one is the image of the independent well performed a negative control test, and it is noted that the testing result of the independent well is not shown in Table 2. […]

S. aureus ATCC29213 [2] = settings: cited from earlier work
E. coli ATCC25922 [3] = settings: cited from earlier work
S. aureus ATCC29213 [4] = assay: antibiotic susceptibility testing on the array microfluidic chip (redox indicator discoloration); assay type: cell-based, Staphylococcus aureus; settings: 5 hours and 30 minutes
Source text: as §1, §2
Next, the array microfluidic chips are placed in the incubator and cultured at 37° C., and the antibiotic susceptibilities of E. coli ATCC25922 and S. aureus ATCC29213 to Amikacin, Gentamicin and Vancomycin are further assessed based on the discoloration of the reaction solutions. […]

Molecule | MIC (E. coli ATCC25922 [1]; ATCC25922, 4 h) | CLSI standard value MIC (S. aureus ATCC29213 [2]) | CLSI standard value MIC (E. coli ATCC25922 [3]) | minimum inhibitory concentration (S. aureus ATCC29213 [4]; 37° C.) | minimum inhibitory concentration (MIC) (E. coli ATCC25922 [1]; array microfluidic chip, 37° C., 4 hours) | MIC (S. aureus ATCC29213 [4]; Staphylococcus aureus, ATCC29213, 37° C., read-out: minimum inhibitory concentration) | MIC (E. coli ATCC25922 [1]; ATCC25922, array microfluidic chip, 37° C., 4 hours)
CN[C@H](CC(C)C)C(=O)N[C@H]1C(=O)N[C@@H](CC(N)=O)C(=O)N[C@H]2C(=O)N[C@H]3C(=O)N[C@H](C(=O)N[C@H](C(=O)O)c4cc(O)cc(O)c4-c4cc3ccc4O)[C@H](O)c3ccc(c(Cl)c3)Oc3cc2cc(c3O[C@@H]2O[C@H](CO)[C@@H](O)[C@H](O)[C@H]2O[C@H]2C[C@](C)(N)[C@H](O)[C@H](C)O2)Oc2ccc(cc2Cl)[C@H]1O [Vancomycin] | > 16 µg/mL | 0.5˜2 μg/mL | R-resistance |  |  |  | 
Gentamicin |  | 0.12˜1 μg/mL | 0.251 µg/mL | 0.25 µg/mL | 1 µg/mL |  | 
NCC[C@H](O)C(=O)N[C@@H]1C[C@H](N)[C@@H](O[C@H]2O[C@H](CN)[C@@H](O)[C@H](O)[C@H]2O)[C@H](O)[C@H]1O[C@H]1O[C@H](CO)[C@@H](O)[C@H](N)[C@H]1O [Amikacin] |  | 1˜4 μg/mL | 0.5˜4 μg/mL |  |  | 1 µg/mL (≈ 1.71 µM) | 1 µg/mL (≈ 1.71 µM)
